Laboratory results published in US7811760B2, “Vector and method for detecting the change in transcription amount” (priority 2006, dated 2010).

Molecular target: T1, aryl hydrocarbon receptor (Rattus norvegicus, UniProt P41738, Q794H)
T1 construct: The SD-line rat AhR gene-coding region was amplified from the reverse-transcribed sample by means of PCR; V5-His (C-terminal tag of vector pcDNA4/V5-His B); expressed in transfected cells; host or cells: mouse neuroblastoma Neuro2a, transient transfection with LIPOFECTAMINE 2000
T1 sequence (P41738 10-853 Q794H): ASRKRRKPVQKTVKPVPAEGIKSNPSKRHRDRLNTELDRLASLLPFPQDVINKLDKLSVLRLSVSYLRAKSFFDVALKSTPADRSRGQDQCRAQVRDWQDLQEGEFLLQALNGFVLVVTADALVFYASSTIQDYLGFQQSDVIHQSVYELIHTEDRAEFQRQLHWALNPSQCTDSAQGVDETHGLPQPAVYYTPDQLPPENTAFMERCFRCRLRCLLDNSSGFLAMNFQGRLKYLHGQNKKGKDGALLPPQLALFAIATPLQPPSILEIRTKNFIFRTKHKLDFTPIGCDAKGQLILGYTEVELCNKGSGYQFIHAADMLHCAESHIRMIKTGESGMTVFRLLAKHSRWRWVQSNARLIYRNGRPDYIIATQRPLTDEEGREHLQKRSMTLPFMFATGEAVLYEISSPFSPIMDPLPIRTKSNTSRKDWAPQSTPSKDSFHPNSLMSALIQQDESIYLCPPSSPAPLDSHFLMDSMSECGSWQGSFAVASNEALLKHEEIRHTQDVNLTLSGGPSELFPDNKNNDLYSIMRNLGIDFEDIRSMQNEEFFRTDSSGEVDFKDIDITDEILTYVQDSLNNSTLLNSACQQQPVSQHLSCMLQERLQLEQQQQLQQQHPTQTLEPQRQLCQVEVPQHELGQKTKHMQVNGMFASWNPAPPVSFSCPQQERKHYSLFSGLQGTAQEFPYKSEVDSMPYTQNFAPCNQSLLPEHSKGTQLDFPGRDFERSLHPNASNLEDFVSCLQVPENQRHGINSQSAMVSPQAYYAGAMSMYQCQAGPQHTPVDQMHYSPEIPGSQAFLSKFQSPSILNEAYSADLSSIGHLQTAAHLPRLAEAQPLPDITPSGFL
Experiment: Reporter gene (luciferase) assay in Neuro2a cells carrying PGV-THp25 (2.5 kbp TH transcriptional regulatory region) and pcDNA4-rAhR
Assay type: cell-based, SD-line rat
Conditions: PGV-pTH25-introduced Neuro2a; for expression amount of the reporter gene (increase versus unexposed): 30 hours
Excerpt: In this Example, the PGV-THp25 prepared in Example 2 was used. Neuro2a was used as the cell.
Two kinds of vectors, pcDNA4-rAhR (Example 1) and pcDNA4/V5-His/lacZ (Invitrogen), were introduced into Neuro2a, together with PGV-THp25. pcDNA4-rAhR was introduced for constitutive expression of the SD-line rat AhR gene (SEQ ID No: 10) in the cell, and pcDNA4/V5-His/lacZ was introduced for normalization of the vector transfection efficiency.
The vectors were introduced into the cell by using LIPOFECTAMINE 2000 (Invitrogen). The cell was cultured on a 24-well plate, and the operation was performed according to the manual of Invitrogen. A total of 0.8 μg of vectors (0.4 μg of PGV-THp25, 0.2 μg of pcDNA4-rAhR, and 0.2 μg of pcDNA4/V5-His/lacZ) suspended in 50 μl of OPTI-MEM medium and 2 μl of LIPOFECTAMINE 2000 suspended in 50 μl of OPTI-MEM medium were mixed, and incubated at room temperature for 20 minutes to form nucleic acid/LIPOFECTAMINE 2000 complex. The obtained suspension containing the complex was added to Neuro2a cell culture, which has been previously cultured overnight in 500 μl of DF1:1 medium (containing 10% fetal calf serum) (0.8×10^5 cells were seeded on previous day), to allow incorporation of the vectors into the cell. The cell was cultured additionally for 24 hours after the transfection, for the purpose of improvement in vector incorporation efficiency and expression of the proteins derived from the introduced vectors.
As the test substance, a solution of dioxin (2,3,7,8-tetrachlorodibenzo-p-dioxine, TCDD) in dimethylsulfoxide (manufactured by Kanto Kagaku Co. Inc.) was used. After the transfection and the additional incubation for 24 hours, the medium was replaced with a fresh medium containing TCDD (at 0, 0.01, 1, or 100 nM), and the cell was cultured additionally for 30 hours. After 30 hours, the medium was removed from the 24-well plate, and the cell was washed with phosphate buffer twice. 100 μl of a protein extraction solution (manufactured by TOYO B-NET) was added to each well, and the cell suspension was stirred gently at room temperature for 15 minutes and then frozen at −80° C. The frozen solution was thawed at room temperature, and the resulting solution was recovered in a tube and diluted ten times with a protein extraction reagent containing 1 mg/ml bovine serum albumin. Luciferase and β-galactosidase activities in the diluted solution were measured, and the expression amount of the reporter gene was calculated as a relative luminescence intensity per 1 ng of β-galactosidase per second (RLU/sec/ng β-galactosidase).

Clc1cc2c(cc1Cl)Oc1cc(Cl)c(Cl)cc1O2 [TCDD, 2,3,7,8-tetrachlorodibenzo-p-dioxine]
expression amount of the reporter gene (increase versus unexposed) (0.01 nM TCDD): approximately 1.2 times | expression amount of the reporter gene (increase versus unexposed) (1 nM TCDD): approximately 1.6 times | expression amount of the reporter gene (increase versus unexposed) (100 nM TCDD): approximately 1.8 times | expression amount of the reporter gene, dose dependence (0.01 to 100 nM TCDD): increased dose-dependently
